Source: patent US12479794B2, “Acetophenone oxime compound and application thereof” (Medshine Discovery Inc., priority 2020, dated 2025)
Marks after values point to notes of the source that are not given here.

Assays:
[1] = Pharmacokinetic evaluation in SD rats (iv and oral); type: in vivo, Sprague Dawley rats; settings: 1 mg/kg
Method: Assay Example 2: Pharmacokinetic Evaluation of Compounds in Rats
Object of the assay: To evaluate the in vivo pharmacokinetics of the compounds in SD rats
Sprague Dawley rats (male, 200-300 g, 7-9 weeks old, Shanghai SLAC)
The pharmacokinetic characteristics of the compounds in rodents after intravenous injection and oral administration were assayed according to the standard protocol. In the assay, the candidate compounds were formulated into clear solutions and administered to rats by single intravenous injection and oral administration. The vehicle for intravenous injection and oral administration was DMSO and 10% hydroxypropyl β-cyclodextrin in water (DMSO:10% hydroxypropyl β-cyclodextrin in water=5:95). Whole blood samples were collected within 48 hours, and centrifuged at 3000 g for 15 minutes. The supernatant was separated to give plasma samples. 4 times the volume of acetonitrile solution containing internal standard was added to precipitate protein. The resulting mixture was centrifuged and the supernatant was taken out. An equal volume of water was added and the mixture was centrifuged. The supernatant was taken out, and injected as a sample to quantitatively analyze the plasma drug concentration by LC-MS/MS analysis method. The pharmacokinetic parameters, such as peak concentration, time to peak, clearance rate, half-life, area under drug-time curve, bioavailability, etc., were calculated.

[2] = Metabolite identification after incubation in human liver microsomes with NADPH; type: in vitro ADME; settings: 10 μM, 37° C., 1 hour
Method: Assay Example 4: Analysis and Identification of Metabolites of the Compound in Human Liver Microsome and Hepatocyte Incubation System
By using high-resolution mass spectrometry, the metabolite produced by the incubation of compound 32B in human liver microsomes and human hepatocytes was found, and identified for its structure; the percentage content of compound 32B and its metabolite was calculated by using LC-UV; and the possible biotransformation pathway of compound 32B in human liver microsomes and human hepatocytes in vitro was studied.
Compound 32B (10 μM) was incubated in a system containing both of human liver microsomes and NADPH at 37° C. for 60 min. 7-ethoxycoumarin (7-EC, 10 μM) was used as a positive control to evaluate the enzymatic metabolic activity in the liver microsome incubation system. The incubated sample was analyzed by LC-UV-HRMS. The structure of each metabolite was resolved and identified based on its primary and secondary mass spectrometry signals and/or comparison with a standard. The relative percentage of the UV-integrated peak area of each metabolite was given through data collected from the sample by LC-UV-HRMS, and the possible structure of the metabolite and its possible metabolic pathway in various genera of liver microsomes were inferred from the mass spectrometry information of the metabolite.

S1P3 = biological target: T1, S1P3 (Homo sapiens, UniProt Q99500); test: In vitro agonistic activity on S1P3, PathHunter cell line; type: cell-based; settings: PathHunter cells
T1 construct: expressed in transfected cells
Method: Assay Example 5: In Vitro Evaluation of the Agonistic Activity of the Compound of the Present Disclosure on S1P2, S1P3 and S1P4
Object of the assay: To detect the agonistic activity of the compound on S1P2, S1P3, and S1P4
• 1. PathHunter cell line was expanded from freezer according to standard procedures. • 2. Cells were seeded into a white 384-well microplate in a total volume of 20 μL and incubated at 37° C. for an appropriate time prior to testing. II. Agonist Assay • 1. For the agonist assay, cells were incubated with a sample to induce a response. • 2. Stock solution was stored in a buffer at a concentration of 5 times the concentration to be tested. • 3. 5 μl of the stock solution sample at a concentration of 5 times the concentration to be tested was added to the cells and incubated at 37° C. or room temperature for 90-180 min with a vehicle concentration of 1%. III. Signal Detection • 1. […] Chemiluminescent Signal detection was performed using a PerkinElmer Envision™ instrument, and the microplate was read after signal generation. […] The activity of the compound was analyzed using the CBIS data analysis suite (ChemInnovation, CA). • 2. For the agonist mode assay, the percent activity was calculated using the following formula: % Activity=100%×(Mean RLU of the Assay Sample−Mean RLU of the Blank Control)/(Mean MAX Control Ligand−Mean RLU of the Blank Control).

T1 sequence (Q99500 whole entry): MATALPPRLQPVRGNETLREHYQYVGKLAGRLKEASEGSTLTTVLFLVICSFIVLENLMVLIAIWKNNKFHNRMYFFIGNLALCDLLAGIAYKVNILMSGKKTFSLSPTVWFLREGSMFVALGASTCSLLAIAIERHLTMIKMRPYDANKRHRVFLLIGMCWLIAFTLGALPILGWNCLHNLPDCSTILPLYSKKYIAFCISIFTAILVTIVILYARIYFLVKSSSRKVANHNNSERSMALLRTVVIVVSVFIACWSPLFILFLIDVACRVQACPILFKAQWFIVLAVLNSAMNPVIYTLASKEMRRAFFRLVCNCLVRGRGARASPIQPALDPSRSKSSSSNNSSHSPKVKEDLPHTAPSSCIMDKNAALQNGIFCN

- Half life T1/2 (PO) ([1]; iv 1.0 mg/kg only (head prints PO)): 8.3 h
- Area under drug-time curve AUC0-last iv ([1]; iv 1.0 mg/kg): 7483* nM · hr
- Clearance rate CL ([1]; iv 1.0 mg/kg): 3.97 mL/min/kg
- Distribution in tissue Vdss ([1]; iv 1.0 mg/kg): 2.7 L/kg
- Metabolites detected [2]: no other metabolite was detected
- Relative abundance of the original drug [2]: 100.00%
- EC50 (S1P3): > 300 nM
SMILES: CC(=NOCc1ccc(OC(C)C)c(C(F)(F)F)c1)c1ccc2c(c1)CCC2N1CC(C(=O)O)C1 (single isomer, unassigned) [Compound 32B]
